Test results taken from patent US20240385182A1, “MASKED FLUOROGENIC LIPID COMPOUNDS, LIPID PARTICLES COMPRISING THE SAME, AND METHODS OF USE THEREOF” (Rutgers, The State University of New Jersey, priority 2023, published 2024).
“Also recorded” adds a separate entry of the source.

Legend:
[1] = Confocal imaging of giant vesicles containing DPPC-TC-ONOO^− treated with redox species
Protocol: FIG. 8A: conceptual illustration of function of the model protocell. FIG. 8B: confocal images acquired for untreated (top panel) and peroxynitrite-treated (middle and bottom panels) GVs. FIG. 8C: confocal images acquired for GVs treated with other RNS and ROS. FIGS. 8B-8C: vesicles were prepared from POPC (98.5%, molar ratio) and DPPC-TC-ONOO^− (1%) via electroformation. Liss-Rhod PE dye (red, 560 nm excitation) was used at 0.5 mol % to label vesicle membranes. […] Scale bar=5 μm. In most biomimetic systems that rely on compartmentalization, physical membrane boundaries are comprised of self-assembled lipids. Biomimetic membranes can be represented by GVs, which have dimensional properties (1-30 μm in diameter) relevant to those of mammalian cells (10-100 μm), display physical characteristics feasible for confocal fluorescence imaging, and are utilized for bottom-up construction of biomimetic systems. […] Given the longer timescale required for data acquisition in microscopy compared to fluorescence measurements by plate reader, the pH of imaging buffers was set to 8.5, which extended the lifetime of peroxynitrite. […] Vesicle size distribution was analyzed by dynamic light scattering (DLS), confirming the presence of GVs. […] GVs were then imaged using fluorescence confocal microscopy. […]

[2] = system: HeLa and RAW 264.7 cells; test: MTT cell viability assay; assay type: cell-based; conditions: 8-250 μM, 24-hour period
Protocol: With a feasible liposome preparation and treatment protocol established for live cell imaging, attention was turned to assessing the cytocompatibility of the LNPs, with or without DPPC-TC-ONOO^−, DPPC-TC, and the oxa-spiro[4,5] decenone 6a. A standard 3-(4,5-dimethylthiazol-2-yl)-2,5-diphenyl tetrazolium bromide (MTT) cell viability assay in HeLa and RAW 264.7 cells treated with these molecules (8-250 μM) over a 24-hour period. The dose-response curves provided high IC50 values for each compound: DPPC-TC-ONOO− (≥100 μM), DPPC-TC (≥50 μM), and 6 (≥70 μM).

[3] = system: RAW-264.7 cells; test: Confocal imaging and colocalization in live RAW-264.7 cells; assay type: cell-based, murine
Protocol: FIGS. 10A-10E: confocal imaging of lipid environments targeted by ONOO^− in live RAW246.7 cells. Cells were seeded into glass microscope dishes, incubated with LNPs (50 μM) and stained with organelle trackers and/or actin dye prior to imaging. LNPs obtained from a 47.5:47.5:5.0 molar ratio of DOTMA, DOPE, and DPPC-TC-ONOO^−. FIG. 10A: cells treated with LNPs, stimulated with LPS. Time coarse images acquired after addition of LPS. FIG. 10B: cells treated with LNPs and 1400 W. FIG. 10C: cells treated with LNPs, then with 1400 W and LPS. FIGS. 10D-10E: quantitative colocalization study of cells treated with LNPs and stimulated with LPS. Pearson's correlation coefficient (PCC) was calculated for quantitative assessment of colocalization using organelle trackers as described above. Scale bars=20 μm (FIGS. 10A-10D) or 5 μm (FIG. 10E). With the utility of DPPC-TC-ONOO^− proven in synthetic protocell membranes, incorporation into live HeLa and RAW 264.7 cells was sought, which are relevant to redox-induced stress and have well-recognized pathways for RNS and ROS production. Lipid nanoparticles (LNPs) (˜100 nm in diameter) was used to deliver DPPC-TC-ONOO− into cells. This method circumvented the limited solubility of DPPC-TC-ONOO− due to the relatively hydrophobic butanone-coumarin motif. LNPs were obtained via sonication from 1,2-di-O-octadecenyl-3-trimethylammonium propane (DOTMA), 1,2-dioleoyl-sn-glycero-3-phosphoethanolamine (DOPE), and DPPC-TC-ONOO− (47.5:47.5:5.0 molar ratio), which were hydrated with a 300 mM sucrose solution. DOTMA and DOPE were chosen as the carrier lipids due to their cationic/zwitterionic natures, which has been postulated to enhance uptake through the cell membrane. The impact of different LNP compositions and incubation times on the cellular incorporation of DPPC-TC-ONOO^− was assessed. […] Specifically, LNPs containing greater than 10 mol % DPPC-TC-ONOO− were considerably more heterogenous in size (up to […] observed, in contrast to ˜100 nm) and nonuniform in vesicle lamellarity. Those with less than 4 mol % DPPC-TC-ONOO− led to insufficient fluorescence signal. To balance these counteracting factors, 5 mol % DPPC-TC-ONOO− was used, with 47.5 mol % DOTMA and DOPE, each. In these initial assays, cells were incubated with LNPs for up to 15 hours to complete the uptake and intracellular localization of DPPC-TC-ONOO−. Shorter incubation times (3-to-5 hours) led to its uptake but not subcellular localization. […] However, high serum concentration in DMEM caused interference between LNPs and serum-protein, resulting in aggregate formation as observed by microscopy. To overcome this obstacle, LNPs (50 μM) were used in a mixture of 2/3 volumetric ratio of sucrose solution and Opti-MEM™, a reduced serum medium known to increase the efficiency of lipofection. The investigations were expanded to include murine-derived macrophage model, RAW-264.7 (FIGS. 10A-10E). RNS play important roles in macrophage activation and differentiation as part of the inflammatory response. Treatment of RAW-264.7 cells with LPS leads to the expression of iNOS, which produces NO·, which then reacts with O2·^−, generating ONOO−. RAW-264.7 cells were treated with LNPs containing either DPPC-TC (positive control) or DPPC-TC-ONOO^− (FIGS. 10A-10E). […] Assessment of DPPC-TC-ONOO^− localization in RAW-264.7 cells was carried out using the ER, Golgi, mitochondrion, and lysosome trackers (FIGS. 10D-10E).

CCCCCCCCCCCCCCCC(=O)OCC(COP(=O)([O-])OCC[N+](C)(C)Cc1cn(-c2cc3ccc(OC(=O)Oc4ccc(CCC(=O)C(F)(F)F)cc4)cc3oc2=O)nn1)OC(=O)CCCCCCCCCCCCCCC (racemic) [DPPC-TC-ONOO^−]
GV membrane fluorescence at 405 nm excitation ([1]; GVs of POPC and DPPC-TC-ONOO^− (~99:1), ONOO^− 100 μM): substantial increase in membrane fluorescence; also recorded: strong fluorescence | GV fluorescence at 405 nm excitation ([1]; GVs of POPC and DPPC-TC-ONOO^−, other redox species (NO·, H2O2, HO·, ^1O2, O2·^−) 100 μM, 5 min): essentially no fluorescence generation; also recorded: minimal fluorescence | IC50 [2]: ≥ 100 µM | signal in the DPPC-TC channel ([3]; RAW-264.7, 1400 W only or 1400 W and LPS): little-to-no signal | PCC ([3]; RAW-264.7, ER tracker): 0.946 | PCC ([3]; RAW-264.7, Golgi tracker): 0.729 | fluorescence intensity ([3]; RAW-264.7, LNPs, stimulation with LPS over 16 hours): substantial increase in fluorescence intensity | signal at 405/475 nm ([3]; RAW-264.7, LNPs, unstimulated): negligible levels of signal
